Experiments:
hmGluR5 = target: T1, hmGluR5 (Homo sapiens, UniProt P41594); assay: inhibition of agonist induced inositol phosphate turnover in hmGluR5 expressing cells; assay type: cell-based; details: read-out: IC50 concentration, inhibition of quinqualate-induced inositol phosphate turnover
T1 construct: expressed in transfected cells
Excerpt: This can be determined in vitro for example at recombinant human metabotropic glutamate receptors, especially PLC-coupled subtypes thereof such as mGluR5, using different procedures like, for example, measurement of the inhibition of the agonist induced elevation of intracellular Ca^2+ concentration in accordance with L. P. Daggett et al., Neuropharm. Vol. 34, pages 871-886 (1995), P. J. Flor et al., J. Neurochem. Vol. 67, pages 58-63 (1996) or by determination to what extent the agonist induced elevation of the inositol phosphate turnover is inhibited as described by T. Knoepfel et al., Eur. J. Pharmacol. Vol. 288, pages 389-392 (1994), L. P. Daggett et al., Neuropharm. Vol. 67, pages 58-63 (1996) and references cited therein. Isolation and expression of human mGluR subtypes are described in U.S. Pat. No. 5,521,297. Selected agents of the invention show IC50 values for the inhibition of the agonist (e.g. glutamate or quisqualate) induced elevation of intracellular Ca2+ concentration or the agonist (e.g. glutamate or quisqualate) induced inositol phosphate turnover, measured in recombinant cells expressing hmGluR5a of about 1 nM to about 50 μM.

[1] = test system: stress-induced hyperthermia in mice; assay: stress-induced hyperthermia in mice; assay type: in vivo; details: control hyperthermia 0.82+/−0.1° C.
Description: A. Lecci et al., Psychopharmacol. 101, 255-261]. At doses of about 0.1 to about 30 mg/kg p.o., selected agents of the invention reverse the stress-induced hyperthermia.
With Furan-3-carboxylic acid [(1R,3R)-3-(3-chloro-phenylethynyl)-3-hydroxy-cyclohexyl]-amide, a stress-induced hyperthermia of 0.82+/−0.1° C. was reduced to 0.37+/−0.10° C. at 3 mg/kg p.o., to 0.02+/−0.08° C. at 10 mg/kg p.o. and to −0.49+/−0.12° C. at 30 mg/kg p.o. (p<0.01; p<0.001; p<0.001 respectively).

T1 sequence (P41594 21-1180 isoform P41594-2 limits assumed): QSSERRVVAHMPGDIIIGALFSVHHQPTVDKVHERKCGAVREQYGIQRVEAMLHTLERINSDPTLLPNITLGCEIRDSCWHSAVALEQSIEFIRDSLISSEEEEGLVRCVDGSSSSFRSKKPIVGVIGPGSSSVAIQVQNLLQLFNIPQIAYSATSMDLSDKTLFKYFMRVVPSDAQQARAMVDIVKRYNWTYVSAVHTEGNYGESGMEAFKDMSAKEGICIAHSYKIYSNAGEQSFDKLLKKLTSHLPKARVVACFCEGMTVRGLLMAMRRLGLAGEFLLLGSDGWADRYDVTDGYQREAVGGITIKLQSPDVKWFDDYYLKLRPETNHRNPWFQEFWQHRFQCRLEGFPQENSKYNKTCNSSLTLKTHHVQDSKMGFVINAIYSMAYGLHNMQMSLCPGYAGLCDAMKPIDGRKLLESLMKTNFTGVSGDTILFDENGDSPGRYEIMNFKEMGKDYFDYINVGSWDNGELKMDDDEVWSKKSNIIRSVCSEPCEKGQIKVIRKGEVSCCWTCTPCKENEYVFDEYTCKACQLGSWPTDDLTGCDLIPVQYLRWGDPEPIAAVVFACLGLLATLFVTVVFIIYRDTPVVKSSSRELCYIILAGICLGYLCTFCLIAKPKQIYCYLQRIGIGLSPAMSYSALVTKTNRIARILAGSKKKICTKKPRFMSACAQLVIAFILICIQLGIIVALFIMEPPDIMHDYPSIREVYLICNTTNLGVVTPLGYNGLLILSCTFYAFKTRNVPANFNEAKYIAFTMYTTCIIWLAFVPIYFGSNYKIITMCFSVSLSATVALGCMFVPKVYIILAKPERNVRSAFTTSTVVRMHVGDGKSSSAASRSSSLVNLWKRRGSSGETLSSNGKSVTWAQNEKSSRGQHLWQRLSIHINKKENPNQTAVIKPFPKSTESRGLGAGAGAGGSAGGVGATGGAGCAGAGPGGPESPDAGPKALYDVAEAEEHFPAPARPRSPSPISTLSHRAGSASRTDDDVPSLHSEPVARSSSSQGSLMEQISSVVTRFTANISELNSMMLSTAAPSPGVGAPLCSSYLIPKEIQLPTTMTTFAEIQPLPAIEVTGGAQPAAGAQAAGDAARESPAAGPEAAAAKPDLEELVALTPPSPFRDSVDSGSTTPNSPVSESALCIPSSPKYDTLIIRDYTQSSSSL

SMILES	melting point [°C]	also measured
O=C(N[C@@H]1CCC[C@](O)(C#Cc2cccc(Cl)c2)C1)c1ccoc1 [Example 1, Furan-3-carboxylic acid [(1R,3R)-3-(3-chloro-phenylethynyl)-3-hydroxy-cyclohexyl]-amide]		IC50 (hmGluR5): 0.028 µM; stress-induced hyperthermia ([1]; 3 mg/kg p.o., p<0.01): 0.37+/−0.10 °C; stress-induced hyperthermia ([1]; 10 mg/kg p.o., p<0.001): 0.02+/−0.08 °C; stress-induced hyperthermia ([1]; 30 mg/kg p.o., p<0.001): −0.49+/−0.12 °C
Cc1cccc(C#C[C@@]2(O)CCC[C@@H](NC(=O)c3ccoc3)C2)c1 (racemic) [Example 1.19, Furan-3-carboxylic acid ((±)-(1R,3R)-3-hydroxy-3-m-tolylethynyl-cyclohexyl)-amide]	135 to 138	
O=C(N[C@@H]1CCC[C@](O)(C#Cc2cccc(F)c2)C1)c1cnc[nH]1 (racemic) [Example 1.37, 3H-Imidazole-4-carboxylic acid [(±)-(1R,3R)-3-(3-fluoro-phenylethynyl)-3-hydroxy-cyclohexyl]-amide]	190 to 191	

More lines, main results first:

melting point [°C]	SMILES	also measured
139 to 140	Cc1cccc(C#C[C@]2(O)CCC[C@H](NC(=O)c3ccco3)C2)c1 [Example 1.21, Furan-2-carboxylic acid ((1S,3S)-3-hydroxy-3-m-tolylethynyl-cyclohexyl)-amide]	
139 to 142	Cc1cccc(C#C[C@@]2(O)CCC[C@@H](NC(=O)c3ccco3)C2)c1 [Example 1.20, Furan-2-carboxylic acid ((1R,3R)-3-hydroxy-3-m-tolylethynyl-cyclohexyl)-amide]	

— US7696379B2, “Acetylene derivatives” (Novartis AG, priority 2005, dated 2010)
